Experiments:
[1] = molecular target: PIK3CA (human) (UniProt P42336); assay: Enzyme Assay
[2] = molecular target: PIK3CD (Human) (UniProt O00329); assay: Enzyme Assay
[3] = molecular target: PIK3CG (human) (UniProt P48736); assay: Enzyme Assay
[4] = molecular target: PIK3CA (human) (UniProt P42336); assay: Cell-Based Assay; settings: rat-1
[5] = molecular target: PIK3CD (Human) (UniProt O00329); assay: Cell-Based Assay; settings: rat-1
[6] = molecular target: PIK3CG (human) (UniProt P48736); assay: Cell-Based Assay; settings: u937

Chain of PIK3CA (human) (P42336 whole entry, looked up): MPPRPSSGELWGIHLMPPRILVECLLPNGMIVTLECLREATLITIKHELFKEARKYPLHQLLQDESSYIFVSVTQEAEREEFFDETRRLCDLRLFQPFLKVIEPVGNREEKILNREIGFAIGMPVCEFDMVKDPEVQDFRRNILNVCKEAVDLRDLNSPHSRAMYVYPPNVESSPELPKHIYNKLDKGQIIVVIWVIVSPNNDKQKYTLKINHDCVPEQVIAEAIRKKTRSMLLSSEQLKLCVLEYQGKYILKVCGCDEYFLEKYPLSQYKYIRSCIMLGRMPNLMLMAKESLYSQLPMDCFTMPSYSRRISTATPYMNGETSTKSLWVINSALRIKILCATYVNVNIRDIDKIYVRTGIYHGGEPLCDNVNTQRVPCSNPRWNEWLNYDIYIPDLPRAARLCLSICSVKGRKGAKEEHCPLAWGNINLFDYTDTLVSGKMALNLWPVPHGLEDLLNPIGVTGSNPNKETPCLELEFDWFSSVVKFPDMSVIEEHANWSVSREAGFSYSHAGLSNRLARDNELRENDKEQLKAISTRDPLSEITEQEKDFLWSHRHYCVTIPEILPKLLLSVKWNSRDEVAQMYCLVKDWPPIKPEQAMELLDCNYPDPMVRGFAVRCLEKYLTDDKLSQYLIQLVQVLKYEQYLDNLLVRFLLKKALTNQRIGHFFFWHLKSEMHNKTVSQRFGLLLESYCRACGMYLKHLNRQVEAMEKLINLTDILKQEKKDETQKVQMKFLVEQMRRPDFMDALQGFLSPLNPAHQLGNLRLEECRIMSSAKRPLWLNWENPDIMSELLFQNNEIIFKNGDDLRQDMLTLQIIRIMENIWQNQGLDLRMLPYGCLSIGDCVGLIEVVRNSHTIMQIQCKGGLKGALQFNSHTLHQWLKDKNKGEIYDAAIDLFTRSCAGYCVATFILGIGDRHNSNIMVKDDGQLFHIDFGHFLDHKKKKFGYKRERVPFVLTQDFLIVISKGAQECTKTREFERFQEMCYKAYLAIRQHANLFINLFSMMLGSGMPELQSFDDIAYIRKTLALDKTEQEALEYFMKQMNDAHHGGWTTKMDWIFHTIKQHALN
Chain of PIK3CD (Human) (O00329 whole entry, looked up): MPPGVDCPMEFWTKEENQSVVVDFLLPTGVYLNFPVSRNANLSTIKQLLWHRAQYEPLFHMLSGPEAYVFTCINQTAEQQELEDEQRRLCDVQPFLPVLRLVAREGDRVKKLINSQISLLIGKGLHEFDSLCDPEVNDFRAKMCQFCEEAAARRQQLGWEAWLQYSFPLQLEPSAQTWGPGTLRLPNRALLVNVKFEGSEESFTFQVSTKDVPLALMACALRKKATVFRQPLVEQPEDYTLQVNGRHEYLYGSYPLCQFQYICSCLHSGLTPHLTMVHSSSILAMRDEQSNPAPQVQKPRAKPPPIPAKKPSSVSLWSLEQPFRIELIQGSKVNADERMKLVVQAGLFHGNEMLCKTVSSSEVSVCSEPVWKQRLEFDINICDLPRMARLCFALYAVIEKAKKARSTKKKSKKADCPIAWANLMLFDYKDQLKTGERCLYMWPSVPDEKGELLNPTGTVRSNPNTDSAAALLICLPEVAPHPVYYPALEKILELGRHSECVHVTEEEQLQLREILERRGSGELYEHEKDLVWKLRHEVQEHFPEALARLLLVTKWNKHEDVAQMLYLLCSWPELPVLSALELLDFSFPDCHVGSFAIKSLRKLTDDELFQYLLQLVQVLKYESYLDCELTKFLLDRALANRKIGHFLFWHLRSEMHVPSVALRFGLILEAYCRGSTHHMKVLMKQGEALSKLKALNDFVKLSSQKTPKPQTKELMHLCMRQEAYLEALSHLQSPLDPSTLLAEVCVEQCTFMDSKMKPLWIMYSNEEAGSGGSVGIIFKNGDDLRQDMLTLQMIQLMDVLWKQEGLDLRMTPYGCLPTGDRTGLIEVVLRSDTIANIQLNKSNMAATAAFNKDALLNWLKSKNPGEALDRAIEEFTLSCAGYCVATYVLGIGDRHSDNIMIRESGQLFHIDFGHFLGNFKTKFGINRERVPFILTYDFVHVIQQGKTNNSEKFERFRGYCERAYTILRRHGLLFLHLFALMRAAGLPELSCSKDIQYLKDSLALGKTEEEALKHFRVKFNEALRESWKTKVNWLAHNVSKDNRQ
Chain of PIK3CG (human) (P48736 whole entry, looked up): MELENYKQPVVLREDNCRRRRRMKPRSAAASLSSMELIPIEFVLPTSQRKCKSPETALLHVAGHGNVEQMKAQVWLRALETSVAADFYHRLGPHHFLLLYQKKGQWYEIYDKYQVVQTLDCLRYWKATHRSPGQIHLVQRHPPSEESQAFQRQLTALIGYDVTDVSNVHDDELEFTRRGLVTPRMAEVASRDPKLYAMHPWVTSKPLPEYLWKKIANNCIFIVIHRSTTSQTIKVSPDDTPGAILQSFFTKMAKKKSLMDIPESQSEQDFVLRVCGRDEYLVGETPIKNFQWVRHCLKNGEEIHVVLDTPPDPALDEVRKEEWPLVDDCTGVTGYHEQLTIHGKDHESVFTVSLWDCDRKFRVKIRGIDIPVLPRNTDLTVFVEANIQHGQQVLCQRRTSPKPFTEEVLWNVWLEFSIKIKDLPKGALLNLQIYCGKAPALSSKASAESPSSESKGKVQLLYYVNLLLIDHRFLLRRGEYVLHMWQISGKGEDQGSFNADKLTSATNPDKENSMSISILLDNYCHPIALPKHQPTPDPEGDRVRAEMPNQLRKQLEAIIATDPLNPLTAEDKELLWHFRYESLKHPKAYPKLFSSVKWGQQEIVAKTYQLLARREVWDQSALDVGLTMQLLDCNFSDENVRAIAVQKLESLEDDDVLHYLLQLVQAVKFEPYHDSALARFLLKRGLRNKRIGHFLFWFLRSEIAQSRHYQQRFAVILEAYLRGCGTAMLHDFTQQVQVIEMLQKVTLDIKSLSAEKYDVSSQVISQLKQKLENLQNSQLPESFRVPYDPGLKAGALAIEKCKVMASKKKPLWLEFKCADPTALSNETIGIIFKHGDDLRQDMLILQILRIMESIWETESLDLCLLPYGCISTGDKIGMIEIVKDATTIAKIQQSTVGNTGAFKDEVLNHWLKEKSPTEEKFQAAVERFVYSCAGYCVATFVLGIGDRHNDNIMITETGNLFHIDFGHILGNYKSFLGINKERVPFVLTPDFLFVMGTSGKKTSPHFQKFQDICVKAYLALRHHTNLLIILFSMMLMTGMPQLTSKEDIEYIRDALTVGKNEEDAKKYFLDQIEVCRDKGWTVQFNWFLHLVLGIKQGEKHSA

Cc1nc(N)nc(N2C[C@@H](O)C[C@H]2c2nc3cccc(C(F)(F)F)c3c(=O)n2-c2cccnc2)c1C#N gave an IC50 [1] of 1800 nM, an IC50 [2] of 960 nM and an IC50 [3] of 220 nM. The IC50 [4] was over 10000 nM, the IC50 [5] was 67 nM and the IC50 [6] was 206 nM.

Nc1nc(N2CCC[C@H]2c2nc3cccc(Cl)c3c(=O)n2N2CCOCC2)c2nccn2n1 gave an IC50 [1] of 2600 nM, an IC50 [2] of 22 nM and an IC50 [3] of 190 nM. The IC50 [4] was over 10000 nM, the IC50 [5] was 130 nM and the IC50 [6] was 399 nM.

In the case of N#Cc1c(N)ncnc1N1CCC[C@H]1c1nc2ccc(F)c(C(F)(F)F)c2c(=O)n1-c1ccccc1, the IC50 [1] is reported as 4200 nM, the IC50 [2] is reported as 13 nM and the IC50 [3] is reported as 500 nM. The IC50 [6] was 211 nM.

With CO[C@H]1C[C@@H](c2nc3cccc(C(F)(F)F)c3c(=O)n2-c2ccccc2)N(c2nc(N)nc(C)c2C#N)C1 the IC50 [1] was 2100 nM, the IC50 [2] was 24 nM and the IC50 [3] was 107 nM. The IC50 [5] was 182 nM and the IC50 [6] was 227 nM.

Cc1ccccc1-n1c([C@@H]2CCON2c2ncnc3[nH]cnc23)nc2cccc(Cl)c2c1=O showed an IC50 [1] of over 10000 nM, an IC50 [2] of 100 nM and an IC50 [3] of 1200 nM. The IC50 [4] was over 10000 nM and the IC50 [5] was 2480 nM.

With COc1ccc(-n2c([C@@H]3CCCN3c3ncnc(N)c3C#N)nc3cccc(Cl)c3c2=O)cn1 the IC50 [1] was over 10000 nM, the IC50 [2] was 240 nM and the IC50 [3] was 460 nM. The IC50 [4] was over 10000 nM and the IC50 [5] was 152 nM.

In the case of N#Cc1c(N)ncnc1N1CCC[C@H]1c1nc2cccc(Cl)c2c(=O)n1N1CCCCC1, the IC50 [1] is reported as over 10000 nM, the IC50 [2] is reported as 120 nM and the IC50 [3] is reported as 3200 nM. The IC50 [4] was over 10000 nM and the IC50 [5] was 278 nM.

For Cn1nccc1-n1c([C@@H]2CSCN2c2ncnc(N)c2C#N)nc2cccc(Cl)c2c1=O, the IC50 [1] was over 10000 nM, the IC50 [2] was 7200 nM and the IC50 [3] was over 10000 nM. It also gave an IC50 [4] of over 10000 nM and an IC50 [5] of over 10000 nM.

N#Cc1c(N)ncnc1N1CCC[C@H]1c1nc2cccc(Cl)c2c(=O)n1C1CCOCC1 was tested, and the IC50 [1] was 4700 nM, the IC50 [2] was 8 nM and the IC50 [3] was 280 nM. For the same compound, the IC50 [4] was over 10000 nM and the IC50 [5] was 36 nM.

N#Cc1c(N)ncnc1N1CCC[C@H]1c1nc2ccc(F)c(F)c2c(=O)n1-c1ccccc1 showed an IC50 [1] of 5550 nM, an IC50 [2] of 90 nM and an IC50 [3] of 2300 nM. The IC50 [4] was over 10000 nM and the IC50 [5] was under 3 nM.

Cc1nc(N)nc(N2CCC[C@H]2c2nc3cccc(OC(F)F)c3c(=O)n2-c2ccccc2)c1C#N showed an IC50 [1] of 340 nM, an IC50 [2] of 9 nM and an IC50 [3] of 70 nM. For the same compound, the IC50 [4] was over 10000 nM and the IC50 [5] was 77 nM.

O=c1c2c(Cl)cccc2nc([C@@H]2CSCN2c2ncnc3[nH]cnc23)n1-c1ccccc1C1CC1 gave an IC50 [1] of 7900 nM, an IC50 [2] of 21 nM and an IC50 [3] of 340 nM. The IC50 [4] was 7140 nM and the IC50 [5] was 142 nM.

Cn1cnc2c(N3CCC[C@H]3c3nc4cccc(Cl)c4c(=O)n3C3CC3)nc(N)nc21 showed an IC50 [1] of 5950 nM, an IC50 [2] of 1430 nM and an IC50 [3] of 445 nM. It also gave an IC50 [4] of 5460 nM and an IC50 [5] of 894 nM.

For O=c1c2c(Cl)cccc2nc([C@@H]2CSCN2c2ncnc3[nH]cnc23)n1-c1ccccc1, the IC50 [1] was 2940 nM, the IC50 [2] was 18 nM and the IC50 [3] was 202 nM. It also gave an IC50 [4] of over 10000 nM and an IC50 [5] of 57 nM.

In the case of Cc1nc(N)nc(N2CCC[C@H]2c2nc3cccc(C(F)(F)F)c3c(=O)n2-c2ccccc2)c1C#N, the IC50 [1] is reported as 460 nM, the IC50 [2] is reported as 5 nM and the IC50 [3] is reported as 46 nM. The IC50 [4] was 210 nM and the IC50 [5] was 37 nM.

With Nc1nc(N2CCC[C@H]2c2nc3cc(F)cc(F)c3c(=O)n2-c2ccccc2)c2nc[nH]c2n1 the IC50 [1] was over 10000 nM, the IC50 [2] was 150 nM and the IC50 [3] was 4300 nM. For the same compound, the IC50 [4] was over 10000 nM and the IC50 [5] was 318 nM.

Cn1cnc2c(N3CCC[C@H]3c3nc4cccc(Cl)c4c(=O)n3N3CCOCC3)nc(N)nc21 gave an IC50 [1] of 5250 nM, an IC50 [2] of 2500 nM and an IC50 [3] of 505 nM. The IC50 [5] was 476 nM and the IC50 [6] was 2360 nM.

In the case of Cc1nc(N)nc(N2C[C@@H](O)C[C@H]2c2nc3cccc(C(F)(F)F)c3c(=O)n2-c2ccccc2)c1C#N, the IC50 [1] is reported as 780 nM, the IC50 [2] is reported as under 3 nM and the IC50 [3] is reported as 5 nM. The IC50 [5] was 8 nM and the IC50 [6] was 59 nM.

With N#Cc1c(N)ncnc1N1CCC[C@H]1c1nc2cccc(OC(F)F)c2c(=O)n1-c1ccccc1 the IC50 [1] was 2400 nM, the IC50 [2] was 12 nM and the IC50 [3] was 590 nM. The IC50 [4] was over 10000 nM and the IC50 [5] was 166 nM.

In the case of CN(C)n1c([C@@H]2CCCN2c2ncnc3[nH]cnc23)nc2cccc(Cl)c2c1=O, the IC50 [1] is reported as 2000 nM, the IC50 [2] is reported as 89 nM and the IC50 [3] is reported as 320 nM. It also gave an IC50 [4] of 7680 nM and an IC50 [5] of 109 nM.

With N#Cc1c(N)ncnc1N1C[C@@H](O)C[C@H]1c1nc2cccc(C(F)(F)F)c2c(=O)n1-c1ccccc1 the IC50 [1] was 1800 nM, the IC50 [2] was 8 nM and the IC50 [3] was 66 nM. It also gave an IC50 [4] of over 10000 nM and an IC50 [5] of 3 nM.

Work on Cc1nc(N)nc(N2CCC[C@H]2c2nc3cc(F)cc(F)c3c(=O)n2-c2ccccc2)c1C#N yielded an IC50 [1] of 5600 nM, an IC50 [2] of 73 nM and an IC50 [3] of 3100 nM. The IC50 [4] was over 10000 nM and the IC50 [5] was 148 nM.

Reference: the Kinase Knowledgebase extract (Sharma et al. 2016)
